Data set [1] relates to neutrophils (Ly6G/Ly6C+) and mononuclear phagocytes (F4/80+) in subcutaneous abscesses. In words: Proportions of neutrophils and mononuclear phagocytes in subcutaneous abscesses (quantitative IHC). It counts as in vivo, female outbred CD-1 mice. As to conditions: single IM 50 mg/kg at 6 h post-challenge; 18 h post-treatment; n = 3 mice.
Data set [2] can be described thus: Preliminary PK and distribution after IM or IV administration (LC-MS/MS). The class given is in vivo, female outbred CD-1 mice. The method, then:
Female outbred CD-1 mice (4-6 weeks old) were infected SQ with CA-MRSA, as described (Section 2.4). At 6 h post-infection, vehicle alone (PBS) or vehicle containing 12.5 mg CPDI-02/kg (IV) or 50 mg/kg (IM) and blood samples (50 µL) were collected from the submandibular vein (Medipoint Goldenrod Lancet, 5 mm) at 2, 4, 8, and 24 h post-treatment into EDTA-coated tubes containing 200 µL of acidified methanol (0.1% formic acid v/v), and immediately mixed by repeated inversion. Samples were pelleted (16,000 RCF) for 10 min, and supernatants were stored at −80 °C until analysis. At 24 h post-challenge, mice were euthanized, and rear flanks were disinfected with 70% ethanol. Abscesses (Section 2.5) and organs were excised, rinsed with deionized H2O, dried, and 50 mg sections were collected in 200 µL of acidified methanol, homogenized using a gentleMACS Dissociator (Miltenyi Biotec 130-093-235, Tokyo, Japan), and stored at −80 °C until analysis.
Peptide quantitation was performed using a Waters ACQUITY UPLC system coupled to a Xevo TQ-XS Tandem Quadrupole Mass Spectrometer with electrospray ionization. […] The following MRM m/z values were monitored: 621.4 > 84 and 621.4 > 100 for the analyte and IS, respectively. Peptide concentrations were determined using analyte-to-IS peak area ratios. […]

On to `CSCC[C@H](NC(=O)[C@H](CC(=O)O)NC(=O)[C@H](CCCCN)NC(=O)[C@H](Cc1ccccc1)NC(=O)[C@H](CO)NC(=O)[C@@H](N)Cc1ccc(O)cc1)C(=O)N1CCC[C@H]1C(=O)N(C)[C@@H](CC(C)C)C(=O)N[C@H](C)C(=O)N[C@@H](CCCNC(=N)N)C(=O)O` [CPDI-02], for which, in data set [1], the “increase of ratio of MPs (F4/80+) to total cells (DAPI+) vs vehicle alone” value stood at 4 fold, the “increase of ratio of mononuclear phagocytes to neutrophils (Ly6G/Ly6C+) vs vehicle alone” value is given as 7 fold and the “ratio of NPs (Ly6G/Ly6C+) to total cells (DAPI+) in subcutaneous abscesses vs vehicle alone” value is recorded as “similar”. In data set [2] (IM 50 mg/kg vs IV 12.5 mg/kg, 18 h post-treatment, n = 3 to 5), the “relative distribution to heart, lungs, liver, kidneys, spleen or brain, IM vs IV” value is “no effect”. Moreover, in data set [2] (abscess-bearing female CD-1 mice, IM 50 mg/kg vs IV 12.5 mg/kg at 6 h post-challenge, 2, 4, 8, 24 h post-treatment, n = 5), the “plasma concentrations after IM vs IV administration” value is given as “increased”.

The values above are taken from PMC11677424, “Early-Stage IM Treatment with the Host-Derived Immunostimulant CPDI-02 Increases Curative Protection of Healthy Outbred Mice Against Subcutaneous Infection with Community-Acquired Methicillin-Resistant Staphylococcus aureus USA300” (Pharmaceutics, 2024).
